Several values for one entry are separate records, joined by “and”; a condition that tells them apart may be missing. Equal entries are not always repeated. Entries after “also recorded” stand apart in the source; their conditions may differ.
How the values were obtained:
[1] = system: E. Coli induced septic shock; test: Protective effect in experimentally induced septic shock; type: in vivo, rats
Experimental: An E. Coli suspension was prepared and serially diluted to the point where an injection of 0.3 ml caused approximately 80% mortality in rats after 12 h. This solution was used as the challenging solution in the following experiment:
Two groups of 6 male rats each were used. The animals were carefully selected so that the average mass in both groups was 210 g (191-219 g in the control group; 194-224 g in the experimental group). A solution containing 43.8 mg/ml of pyridoxal was prepared for i/v and i/p injection. 0.8 ml of this solution afforded 1.0 m mol/kg of PL when injected into a 210 g rat.
At time 0 h, the control group received 0.3 ml saline and the experimental group 0.3 ml of the PL solution. After 1 h all animals in both groups were challenged with 0.3 ml i/v of the E. Coli suspension. Immediately thereafter, the control group received 0.5 ml saline and the experimental group 0.5 ml of the PL solution i/p.
Each entry represents 1 animal, 12 h denoting that the particular animal survived for the full observation period of 12 h. Other entries denote mortalities at the times indicated, e.g. 2 h inspection (all animals were inspected at 1 h intervals and mortalities counted).

[2] = Plasma PLP increment in critically ill patients on hyperalimentation and additional PN / alleviation of B6 depletion; type: in vivo
Excerpt: A direct inverse correlation exists between the degree of B6 depletion of critically ill patients and their chances of survival. Medical and surgical complication such as shock, hepatic failure, infection and sepsis, wound dehiscence, incisional hernia, aminoglycoside induced renal failure and impaired skin and mucosal regeneration, hematopoiesis, hormone production and wound repair; multi-organ dysfunction, respiratory distress and also severe depression are substantially more frequent in B6 deficient patients. These conditions are, inter alia, causally related to impairment of immune function, collagen and elastin cross-linking and polyamine synthesis and accumulation. […] However, the correctness or otherwise of any explanations given or mechanisms postulated is not to limit the scope of the invention or to be relevant to the inventive merits of the invention as claimed.

fibroblast cell cultures = test: Example 27: cellular uptake in fibroblast cell cultures, intracellular PLP content; type: cell-based
Experimental: Fibroblast cell cultures were cultivated in the usual manner in a medium containing different concentrations of various B6 vitamers, and the intracellular […] content was determined.
When the extracellular PL concentration was 60 nM, intracellular PLP levels reached a concentration of 12 nmol/g cell protein. […] Moreover, when both PN and PL were included in the medium, intracellular PLP accumulation was decreased in comparison with PLP accumulation seen when PL alone (in equimolecular concentrations)was included in the medium.

[3] = system: estrogen side effects (tryptophane metabolism); test: Counteracting side effects of elevated estrogen (PMS, OC users); type: in vivo, patients
PN-oxidase deficiency = test: Response of patients with reduced PN-oxidase activity; type: in vivo
Babesia canis [4] = test: Example 4: further clinical trials on dogs with B-canis infection; type: in vivo
Excerpt: The experiment was repeated with 13 dogs (10 inbred beagles and 3 other mongrels) randomly divided into an experimental and a control group. All animals were infected with Babesia canis by injection of blood from a splenectomised donor dog which led to the development of acute Babesiosis in approximately 3-5 days. All dogs were monitored twice daily until the haematocrit values fell to 0.15 l/l when treatment was started which in the case of all animals consisted of the following:
Electrolytes solution (number 2) for the first […], thereafter Post-Surgisol. Both fluids were administered by means of an intravenous jugular catheter at a rate of 80 ml/kg/24h.
Trypan blue (1%) 1 ml/kg intravenous once only. Berenil 3.5 mg/kg intramuscularly 7 days after the Trypan blue. Heparin, 25 IU/kg subcutaneously three times per day for the first 2 days.
Experimental animals, in addition, received pyridoxal in their infusions at a concentration of 50 mg/l for the entire duration of fluid therapy.
Before the start of treatment, a urine dipstick and sediment examination were performed as well as a complete clinical evaluation and faecal flotation to determine the presence of helminth ova.
Assessment: Temperature pulse and respiration were measured every 6 hours during the first 3 days and a subjective assessment of habitus (grade 1-4) and appetite (1-4) was also made at the same time.
Full haematological and biochemical assessment was performed daily.
Serum alkaline phosphatase determinations were made on days 1 and 3.
Additional trial parameters and measurements consisted of Astrup determinations (before treatment and again 24 hours later) and a ten day survival rate.
Samples for haematology were drawn in evacuated EDTA tubes and for serum chemistries into plain evacuated tubes (cephalic vein).
Plasma PLP and PL as well as RBC-PLP and PL values were determined by means of a HPLC procedure routinely used for human studies.

[5] = system: anemia / haemoglobin formation; test: Treatment of anemias; type: in vivo, patients; settings: cases where conventional therapy is ineffective, pyridoxine refractory anaemias
lipid metabolism = settings: experimental animals; German patent application P37 05 549.6; cited from earlier work
[6] = experimental animals or humans; cited from earlier work
[7] = compared with PN; cited from earlier work
Babesia canis [8] = test: Example 4: clinical trials on dogs with B. canis infection; type: in vivo
Experimental: Babesia canis infection, better known as "biliary fever", is a severe and frequently fatal disease in dogs. It is a protozoal disease involving large-scale destruction of erythrocytes (red blood cells) and loss of haemoglobin. Double blind trials were carried out on two groups of dogs presented to the clinic for treatment of severe B. canis infections. Upon admission, all animals were recumbent with fever, jaundice, and accelerated heart and respiratory rate. All animals were given standard treatment, which consisted of post surgical drip, doxycycline, trypan blue, hepavet, electrolytes and glucose. In the experimental group, a solution of PL was added to the drip (electrolytes, glucose) given to the animals. In the control group, saline was given to replace the PL solution.
The PL solution according to the invention was made up as follows (per vial):
Experimental animals: PL solution according to the invention was given with the drip in such a manner that each patient received 50mg of pyridoxal over a 12 h period. Each animal received only one such course of treatment.
These received saline instead of PL solution under similar conditions. Control animals were selected to resemble experimental animals as closely as possible in respect of race and initial haemoglobin concentration.
**E: denotes experimental animals C: denotes controls, E: denotes changes
per day during the period between the first two series of measurements of
the parameters listed. Normally these represent measurements obtained
immediately after admission (or 1 day later) and again 2 to 4 days later
after treatment has been started.
***Average changes for six animals in each group over the two periods of […]

albumin = settings: plasma; cited from earlier work
[9] = man; cited from earlier work
[10] = system: glutamate-pyruvate-transaminase (GPT); test: RBC GPT-activity before and after daily oral PN supplementation; type: in vivo, human; settings: RBC GPT-activity at day 0 and day 28, daily oral PN (10 mg)
Excerpt: The enzyme glutamate-pyruvate-transaminase (GPT) is a PLP dependent enzyme present in RBC which can be used to assess the utilisation of PN by RBC. In the population, individuals may be divided into 3 different groups corresponding to 3 polymorphic forms of the enzyme (1-1, 25%; 1-2, 50%; 2-2, 25%.

[11] = system: PNP-oxidase in bone marrow aspirate; test: Conversion of pyridoxine by bone marrow aspirate (PNP-oxidase activity); type: cell-based; settings: immature cells
Experimental: To confirm the inability of immature cells to convert pyridoxine into pyridoxal and its phosphate, an aspirate of bone marrow was tested.

[12] = system: estrogen side effects (tryptophane metabolism); settings: cited from earlier work
[13] = system: anemia / haemoglobin formation; settings: 50-200 mg PN/day, one case 600 mg/day; Merrill and Henderson; cited from earlier work
[14] = system: PLP-phosphatases in red blood cells; test: Inhibition of PLP-specific phosphatases of red blood cells; type: biochemical
[15] = average change for six experimental animals
[16] = change per day, individual animal, 50 mg pyridoxal over 12 h with drip
[17] = change per day, total of experimental group
[18] = patients destined to die, hyperalimentation and additional PN, even with 200mg/day

Cc1ncc(CO)c(C=O)c1O [PL, pyridoxal]
difference in survival rate ([1]; PL-supplemented vs control, 12 h): statistically significant difference in survival rate | survival time ([1]; individual rat, 0.3 ml i/v 1 h before and 0.5 ml i/p after challenge, 12h = survived full period): 1 h and 3 h (3×) and 12 h (2×) | effectiveness to counteract B6 depletion ([2]; compared with PN, also patients who do not respond to PN): substantially more effective than PN | intracellular PLP level (fibroblast cell cultures; extracellular PL concentration 60 nM): 12 nmol/g cell protein | intracellular PLP level, maximum value (fibroblast cell cultures; extracellular PL concentration 600 nM): 120 nmol/g cell protein | cellular uptake (fibroblast cell cultures; further increase of extracellular concentration): saturable process | effect of extracellular vitamer on intracellular PLP level (fibroblast cell cultures; relative effectiveness of PL and PN): more effective than PN | effectiveness / effective dosage rate against side effects of estrogen ([3]; supplementation, particularly over prolonged periods, compared with pyridoxine): effective at dosage rates as low as a few mg/day; also recorded: far more effective | response compared with PN (PN-oxidase deficiency): respond much more satisfactorily | mean corpuscular hemoglobin (Babesia canis [4]; day 5, experimental animals): statistically significantly increased | mean corpuscular volume (Babesia canis [4]; day 5, experimental animals): statistically significantly increased | clinical improvement (Babesia canis [4]; experimental group): definite clinical improvement | deaths (Babesia canis [4]; experimental group, 50 mg/l in infusions, two died in control group): none | reticulocyte count response (Babesia canis [4]; experimental vs control): responded quicker | normablast count profile (Babesia canis [4]; first 3 days, continuous downward trend in controls): inverse trend | alkaline phosphatase values (Babesia canis [4]; serum, day 1 to day 3, decreased in controls): large increase | stimulation of haemoglobin formation [5]: capable of stimulating the formation of haemoglobulin | lipid lowering effect (lipid metabolism): unexpectedly strong lipid lowering effects | adverse effects [6]: No adverse effects | in vitro stability [7]: far less stable | Hb change, average (Babesia canis [8]; [15]): 11.7 g/L | MCHC change, average (Babesia canis [8]; [15]): -0.03 g/dlRC | MCV change, average (Babesia canis [8]; [15]): 0.17 fL | RCC change, average (Babesia canis [8]; [15]): 4.4e+11 L⁻¹ | WCC change, average (Babesia canis [8]; [15]): 4.52e+09 L⁻¹ | Hb (haemoglobin) change (Babesia canis [8]; [16]): 11.0 g/L and 12.8 g/L and 6.5 g/L and 9.5 g/L and 7.8 g/L and 24.8 g/L | MCHC (mean corpuscular haemoglobin content) change (Babesia canis [8]; [16]): 3.8 g/dlRC and -1 g/dlRC and -2.5 g/dlRC and -1.7 g/dlRC and -0.5 g/dlRC and 2.5 g/dlRC | MCV (mean corpuscular volume) change (Babesia canis [8]; [16]): -6 fL and 2 fL and 0 fL and 3 fL and 1 fL | RCC (red cell count) change (Babesia canis [8]; [16]): 4.1e+11 L⁻¹ and 4.9e+11 L⁻¹ and 4.7e+11 L⁻¹ and 2.3e+11 L⁻¹ and 6.4e+11 L⁻¹ | WCC (white cell count) change (Babesia canis [8]; [16]): 3e+09 L⁻¹ and -8.4e+09 L⁻¹ and 2.5e+09 L⁻¹ and 3.1e+09 L⁻¹ and 1.05e+09 L⁻¹ and 1.79e+10 L⁻¹ | Hb change, total (Babesia canis [8]; [17]): 70 g/L | MCHC change, total (Babesia canis [8]; [17]): -8.2 g/dlRC | MCV change, total (Babesia canis [8]; [17]): 1 fL | RCC change, total (Babesia canis [8]; [17]): 2.65e+12 L⁻¹ | WCC change, total (Babesia canis [8]; [17]): 2.715e+10 L⁻¹ | recovery of haemoglobin levels (Babesia canis [8]; experimental animals): amazing recovery of haemoglobin levels | haematological differences to control group (haemoglobin, RCC, WCC) (Babesia canis [8]; experimental vs control): Large, significant differences

Cc1ncc(COP(=O)(O)O)c(C=O)c1O [PLP, pyridoxal phosphate]
accumulation of extracellular PLP by the cells (fibroblast cell cultures): not accumulated by the cells | radioactivity in the intracellular fraction (fibroblast cell cultures; incubation with radioactive PLP): very little radioactivity | protein (albumin) binding compared with PL (albumin): substantially more prone to becoming protein (albumin) bound than PL

Cc1ncc(CO)c(CN)c1O [PM, pyridoxamine]
response compared with PN (PN-oxidase deficiency): respond much more satisfactorily

Cc1ncc(CO)c(CO)c1O [PN, pyridoxine]
increment in plasma PLP, generally [2, 18]: less than 10 nM | increment in plasma PLP, occasionally [2, 18]: less than 1 nM | rate of increase of intracellular PLP level (fibroblast cell cultures; PN vs PL as extracellular source): increased much more slowly (and in a time dependent manner) | effect of high concentrations on intracellular PLP accumulation (fibroblast cell cultures; high concentrations of PN with PL): suppress intracellular PLP accumulation | plasma half-life [9]: about 12 minutes | side effects at high bolus dosage ([3]; high dosage levels (e.g. 200-400 mg daily)): produces side effects | slow responders among persons studied [10]: Approximately 20% | conversion of pyridoxine into pyridoxal and its phosphate [11]: incapable of converting PN into PLP or PL | conversion of pyridoxine into pyridoxal and its phosphate ([11]; listed as pyridoxine): incapable of converting pyridoxine into pyridoxal | dosage necessary for effect in PMS / estrogen side effects ([12]; bolus doses, daily): 200 to 400 mg/day | effect on Tryp. metabolism and associated clinical symptoms ([12]; oral, OC users): repeatedly shown to normalise Tryp. metabolism | response rate in pyridoxine-responsive anemias [13]: fewer than half of the cases | lipid lowering effect (lipid metabolism): only a weak lipid-lowering and regulating agent

NCCCCNCCCN [spermidine]
inhibition of PLP-specific phosphatases [14]: inhibited

NCCCNCCCCNCCCN [spermine]
inhibition of PLP-specific phosphatases [14]: inhibited

— patent publication US5254572A, “Method and composition for supplementing vitamin B6 where the PN-PLP pathway is disturbed” (priority 1989, dated 1993)
